Measurements reported in article PMC5234776, “Study of the Antimicrobial Activity of Tilapia Piscidin 3 (TP3) and TP4 and Their Effects on Immune Functions in Hybrid Tilapia (Oreochromis spp.)” (PLoS ONE, 2017).
Values after ≈ are worked out from the molar mass of the structure shown. Like-named read-outs stand apart in the source and are kept apart here. One block for each compound: values may come before it. Peptide text beside a SMILES is read from it.

Assays:
[1] = tested on: tilapia; assay: Toxicity of peptide alone, tilapia survival; format: in vivo, tilapia (Oreochromis spp.); conditions: abdominal cavity, no infection, seven days (S2 Fig)
Experimental: The antimicrobial activities of TP3 and TP4 peptides were analyzed in tilapia infected with lethal amounts of bacteria. Different amounts of V. vulnificus were injected into the abdominal cavities of the fish, and survival rates were recorded as cumulative percentages (S1 Fig). To determine whether TP3 and TP4 had any toxic effects on the tilapia, we injected different doses of TP3 and TP4 (0.1, 1, 10, 20, 30, 40, or 50 μg/fish) into the abdominal cavity and recorded the cumulative survival percentage of the fish (S2 Fig). We also co-treated tilapia with different doses (0.1, 1, 10, 20 μg/fish) of TP3 or TP4 combined with 2x10^4 CFU of V. vulnificus to evaluate tilapia survival following treatment. […] After 14, 21, or 28 days following the first co-treatment with TP3, the tilapia that survived in the 20 μg/fish TP3 experimental group were injected with a second dose of 2x10^4 CFU of V. vulnificus, and the survival rates were measured for another seven days. […] In the co-treatment experiments, at 14, 21, or 28 days after the first co-treatment with TP4, the surviving tilapia in the 20 μg/fish TP4 experimental group received a second injection of 2x10^4 CFU of V. vulnificus, and the survival rates were measured for another seven days.
Supplementary file pone.0169678.s002.pdf: S2 Fig Determination of tilapia survival rates seven days after injection with different concentrations of TP3 or TP4. (a) The survival rates of tilapia injected with TP3 at a dose of 0.1 μg/fish, 1 μg/fish, or 10 μg/fish. (b) The percentage of tilapia surviving after injection with TP4 at 0.1 μg/fish, 1 μg/fish, or 10 μg/fish. (c) The percentage of tilapia surviving after injection with TP3 at 20 μg/fish, 30 μg/fish, 40 μg/fish, or 50 μg/fish. (d) The percentage of tilapia surviving after injection with TP4 at 20 μg/fish, 30 μg/fish, 40 μg/fish, or 50 μg/fish. The control group (control) was injected with PBS alone. (PDF) Click here for additional data file.

[2] = in vivo; parameters: species or system tilapia (Oreochromis hybrids, Tilapia spp.); conditions: male, iv, 0.2 mg/kg
Experimental: The peptide half-life of TP3 and TP4 were investigated in male tilapia (Oreochromis hybrids, Tilapia spp., with a mean body length of 32.33±1.5 cm and a mean body weight of 1117±78.2 g) after intravenous administration of a single dose of 0.2 mg/kg of peptide. The TP3 and TP4 concentrations in serum samples were determined at 10, 30, 60, 120, 180, 240, 300, and 360 minutes for TP3 and at 10, 60, 120, 180, 240, 300, and 360 minutes after dosing for TP4. At each sample collection time point, we anesthetized three fish and collected their blood. The blood was centrifuged to obtain fish serum, which was assessed by liquid chromatography-mass spectrometry/mass spectrometry (LC-MS/MS) at Mission Biotech (Taipei, Taiwan).

[3] = tested on: V. vulnificus; assay: microbe, parasite or virus in culture; format: cell-based, Vibrio vulnificus
Experimental: (§1) To understand the effects of pH on TP3 or TP4, the reagents were dissolved in ddH2O, 1 M HCl or 1 M NaOH to obtain solutions with different pH values. For the temperature-dependent functional study, the TP3 or TP4 was added to a solution in a water bath (Basic life, model BL3002, Taiwan) and incubated for 60 minutes at different temperatures (40, 60, 80, or 100°C). To evaluate the effects of TP3 and TP4 on pepsin and trypsin function, each peptide was incubated for 10 or 30 minutes with different concentrations of pepsin or trypsin (0.1, 1, or 10 μg/ml), and we determined the MIC values after incubating these solutions with cells at 28°C for 720 minutes, according to a previously described MIC experimental protocol.

[4] = tested on: V. vulnificus; assay: MIC, broth microdilution (NCCLS); format: cell-based, Vibrio vulnificus; conditions: 28°C
Experimental: (§2) We determined the MICs of TP3, TP4, kanamycin, and ampicillin against V. vulnificus using a broth microdilution method in accordance with NCCLS guidelines. To measure the killing efficiencies of TP3 and TP4 against V. vulnificus, we prepared TP3 or TP4 solutions at MIC concentrations of 0.5×, 1×, and 2× and these solutions with equal volumes of V. vulnificus (1×10^6 CFU/ml) to each well of a 96-well plate. The plates were incubated at 28°C for 0, 60, 120, 180, 360, 540, 720, or 1440 minutes, and after the incubation period, 50 μL of each bacterial solution were plated on a TCBS plate to obtain viable cell counts. Broth grown in the absence of peptides was used as a negative control. The results were determined using triplicate independent experiments.

[5] = tested on: V. vulnificus; assay: Synergy of TP3 or TP4 with ampicillin or kanamycin; format: cell-based, Vibrio vulnificus; conditions: V. vulnificus 5×10^3 CFU/ml, 28°C, 720 minutes, 600-nm absorbance
Experimental: We used the co-treatment method to test combinations of TP3 or TP4 with ampicillin or kanamycin to identify synergistic effects. […] The plates were incubated at 28°C for 720 minutes, and after the incubation period, the concentrations of the bacterial solutions were detected using a spectrometer (600-nm absorbance).

[6] = tested on: V. vulnificus; assay: microbe, parasite or virus in culture; format: cell-based, Vibrio vulnificus; remark: listed apart in the source
Experimental: as §1, with “[…],” for “and we determined the MIC values after incubating these solutions with cells at 28°C for 720 minutes,”

[7] = tested on: V. vulnificus; assay: microbe, parasite or virus in culture; format: cell-based, Vibrio vulnificus; conditions: V. vulnificus
Experimental: as §2
First, we determined the minimum MICs and minimum bactericidal concentrations (MBCs) of TP3 or TP4 against V. vulnificus.

[8] = tested on: V. vulnificus; assay: Membrane perturbation, NPN uptake; format: cell-based, Vibrio vulnificus; conditions: 1×10^6 CFU/ml, 30 minutes, 40 μmol/L NPN; kanamycin: slight increase only
Experimental: We used previously reported methods for the membrane perturbation assay. Briefly, a single colony of V. vulnificus was cultured in TSB medium for 480 minutes at 28°C, and the adjusted culture (1×10^6 CFU/ml) was aliquoted into different tubes with or without TP4 or TP3. After incubating the cells for 30 minutes, we added 40 μmol/L 1-N-phenylnaphthylamine (NPN) and continued to incubate the cells. Tubes containing PBS with NPN and bacterial cells with NPN served as controls. The NPN fluorescence intensity was detected using a fluorescence ELISA reader. All experiments were performed in triplicate, and the results are expressed as means with standard errors (SE).

[9] = agent incubated 60 minutes at 60°C
[10] = agent incubated 60 minutes at 80°C
[11] = agent incubated 60 minutes at 100°C
[12] = agent dissolved in pH = 4 solution
[13] = agent dissolved in pH = 6 solution
[14] = agent dissolved in pH = 8 solution
[15] = agent dissolved in pH = 10 solution
[16] = agent dissolved in pH = 12 solution
[17] = agent incubated 60 minutes at 40°C

SMILES: CC[C@H](C)[C@H](NC(=O)[C@H](C)NC(=O)[C@H](CCCCN)NC(=O)CNC(=O)[C@H](C)NC(=O)[C@H](CO)NC(=O)[C@H](Cc1ccccc1)NC(=O)[C@H](CC(C)C)NC(=O)CNC(=O)CNC(=O)[C@@H](NC(=O)[C@@H](NC(=O)[C@H](Cc1cnc[nH]1)NC(=O)[C@H](Cc1cnc[nH]1)NC(=O)[C@@H](NC(=O)[C@@H](N)Cc1ccccc1)[C@@H](C)CC)[C@@H](C)CC)[C@@H](C)CC)C(=O)N[C@@H](Cc1cnc[nH]1)C(=O)N[C@@H](CCCNC(=N)N)C(=O)N[C@@H](CC(C)C)C(=O)N[C@H](C(=O)N[C@@H](CCCNC(=N)N)C(=O)N[C@@H](CCCNC(=N)N)C(=O)N[C@@H](CCCNC(=N)N)C(=O)N[C@@H](CCCNC(=N)N)C(=O)N[C@@H](CCCNC(=N)N)C(=O)O)[C@@H](C)CC [TP4, tilapia piscidin 4] (H-FIHHIIGGLFSAGKAIHRLIRRRRR-OH)
percent survival after injection of peptide only ([1]; 20 μg/fish): 70.0%
percent survival after injection of peptide only ([1]; 30 μg/fish): 56.7%
percent survival after injection of peptide only ([1]; 40 μg/fish): 63.3%
percent survival after injection of peptide only ([1]; 50 μg/fish): 30.0%
half-life [2]: 60 min

MIC ([3]; Vibrio vulnificus, agent dissolved in pH = 4 solution, read-out: MIC): 3.9 µg/mL (≈ 11.2 µM)
MIC ([3]; Vibrio vulnificus, agent dissolved in pH = 6 solution, read-out: MIC): 3.9 µg/mL (≈ 11.2 µM)
MIC ([3]; Vibrio vulnificus, agent dissolved in pH = 8 solution, read-out: MIC): 3.9 µg/mL (≈ 11.2 µM)
MIC ([3]; Vibrio vulnificus, agent dissolved in pH = 10 solution, read-out: MIC): 3.9 µg/mL (≈ 11.2 µM)
MIC ([3]; Vibrio vulnificus, agent dissolved in pH = 12 solution, read-out: MIC): 15.6 µg/mL (≈ 44.6 µM)
MIC ([3]; Vibrio vulnificus, pH 7, Control of the pH series (pH 7), read-out: MIC): 3.9 µg/mL (≈ 11.2 µM)
MIC [4]: 3.9 µg/mL (≈ 11.2 µM)
MIC ([4]; Vibrio vulnificus, read-out: MIC): 3.91 µg/mL (≈ 11.2 µM)
change of the MIC of the antibiotic in combination with TP3 or TP4 [5]: halved
MIC ([6]; Vibrio vulnificus, 1 h, agent incubated 60 minutes at 40°C, read-out: MIC): 3.9 µg/mL (≈ 11.2 µM)
MIC ([6]; Vibrio vulnificus, RT, read-out: MIC): 3.9 µg/mL (≈ 11.2 µM)
MIC [6, 9]: 3.9 µg/mL (≈ 11.2 µM)
MIC [6, 10]: 3.9 µg/mL (≈ 11.2 µM)
MIC [6, 11]: 3.9 µg/mL (≈ 11.2 µM)
thermostability by MIC and MBC values ([6]; from 40°C to 100°C, in words): very stable
SMILES: CC1(C)S[C@@H]2[C@H](NC(=O)[C@H](N)c3ccccc3)C(=O)N2[C@H]1C(=O)O [ampicillin, reference compound]
MBC ([3]; Vibrio vulnificus, agent dissolved in pH = 4 solution, read-out: MBC): 3.9 µg/mL (≈ 11.2 µM)
MBC ([3]; Vibrio vulnificus, agent dissolved in pH = 6 solution, read-out: MBC): 3.9 µg/mL (≈ 11.2 µM)
MBC ([3]; Vibrio vulnificus, agent dissolved in pH = 8 solution, read-out: MBC): 3.9 µg/mL (≈ 11.2 µM)
MBC ([3]; Vibrio vulnificus, agent dissolved in pH = 10 solution, read-out: MBC): 3.9 µg/mL (≈ 11.2 µM)
MBC ([3]; Vibrio vulnificus, agent dissolved in pH = 12 solution, read-out: MBC): 15.6 µg/mL (≈ 44.6 µM)
MBC ([3]; Vibrio vulnificus, pH 7, Control of the pH series (pH 7), read-out: MBC): 3.9 µg/mL (≈ 11.2 µM)
MBC ([6]; Vibrio vulnificus, 1 h, agent incubated 60 minutes at 40°C, read-out: MBC): 3.9 µg/mL (≈ 11.2 µM)
MBC ([6]; Vibrio vulnificus, RT, read-out: MBC): 3.9 µg/mL (≈ 11.2 µM)
MBC [6, 9]: 3.9 µg/mL (≈ 11.2 µM)
MBC [6, 10]: 3.9 µg/mL (≈ 11.2 µM)
MBC [6, 11]: 3.9 µg/mL (≈ 11.2 µM)
MBC [7]: 3.9 µg/mL (≈ 11.2 µM)
MBC ([7]; Vibrio vulnificus, read-out: MBC): 3.91 µg/mL (≈ 11.2 µM)

MIC [3, 12]: 31.2 µg/mL (≈ 64.4 µM)
MIC [3, 13]: 31.2 µg/mL (≈ 64.4 µM)
MIC [3, 14]: 31.2 µg/mL (≈ 64.4 µM)
MIC [3, 15]: 31.2 µg/mL (≈ 64.4 µM)
MIC [3, 16]: 250 µg/mL (≈ 516 µM)
MIC [4]: 31.2 µg/mL (≈ 64.4 µM)
change of the MIC of the antibiotic in combination with TP3 or TP4 [5]: halved
MIC ([6]; RT): 31.2 µg/mL (≈ 64.4 µM)
MIC [6, 17]: 31.2 µg/mL (≈ 64.4 µM)
MIC [6, 9]: 31.2 µg/mL (≈ 64.4 µM)
MIC [6, 10]: 31.2 µg/mL (≈ 64.4 µM)
MIC [6, 11]: 62.5 µg/mL (≈ 129 µM)
SMILES: NC[C@H]1O[C@H](O[C@H]2[C@H](O)[C@@H](O[C@H]3O[C@H](CO)[C@@H](O)[C@H](N)[C@H]3O)[C@H](N)C[C@@H]2N)[C@H](O)[C@@H](O)[C@@H]1O [kanamycin, reference compound]
MBC ([3]; Control of the pH series (pH 7)): 31.2 µg/mL (≈ 64.4 µM)
MBC [3, 12]: 31.2 µg/mL (≈ 64.4 µM)
MBC [3, 13]: 31.2 µg/mL (≈ 64.4 µM)
MBC [3, 14]: 31.2 µg/mL (≈ 64.4 µM)
MBC [3, 15]: 31.2 µg/mL (≈ 64.4 µM)
MBC [3, 16]: 250 µg/mL (≈ 516 µM)
concentration that increased NPN fluorescence [8]: 100 µg/mL
MBC ([6]; RT): 31.2 µg/mL (≈ 64.4 µM)
MBC [6, 17]: 31.2 µg/mL (≈ 64.4 µM)
MBC [6, 9]: 31.2 µg/mL (≈ 64.4 µM)
MBC [6, 10]: 31.2 µg/mL (≈ 64.4 µM)
MBC [6, 11]: 62.5 µg/mL (≈ 129 µM)
MBC [7]: 31.2 µg/mL (≈ 64.4 µM)
